The source of these data is patent US20160051493A1, “METHODS OF TREATMENT OF KERATINOCYTE-DERIVED LESIONS” (THE TRUSTEES OF COLUMBIA UNIVERSITY IN THE CITY OF NEW YORK, priority 2012, published 2016).

Assay [1] deals with skin tumors. Particulars: mouse, in vivo; cited from earlier work.
Assay [2] has as its system normal human keratinocytes. The experiment in a line: Keratinocyte cell counts (DAPI), morphology and EdU proliferation assay after 24 h treatment. Particulars: in the presence of camphor. The protocol: (§1) Normal human keratinocytes were isolated from human foreskins by undergoing two enzymatic dissociation steps, first in dispase then in trypsin. Cells were cultured in EpiLife supplemented with human keratinocyte growth supplement (HKGS; Invitrogen). For all experiments with undifferentiated cells, keratinocytes were harvested or images at ˜75% confluency. Differentiation was induced by adding CaCl2 to the EpiLife media to reach a final [Ca2+] of 1.2 mM. Cells were typically cultured for 3 days under differentiation conditions before they were assayed. Keratinocytes were cultured for <5 passages. Purified Camphor (CAS #76-22-2), 2-APB (Tocris) or vehicle (1% EtOH)-containing media were used as indicated.
Cells were treated with 2-APB or camphor for 24 hours at 37° C., exposed to EdU for 45 min, fixed and stained with DAPI for cell counting. EdU Click-It assays (Invitrogen) were used to assess cell-cycle entry. The cells were then fixed and stained with DAPI. Three fields per well were assayed via a 20× objective and there were 4 wells per treatment in each experiment. EdU=5-ethynyl-2′-deoxyuridine.
As Ca^2+ triggers the commitment switch from proliferation to differentiation in keratinocytes, it was reasoned that increasing intracellular calcium by incubating keratinocytes in TRP agonists might be sufficient to induce this cell-fate switch in low-calcium growth media. To test this hypothesis, normal human keratinocytes were cultured for 24 hours under low-Ca^2+ conditions in the presence of low (12.5 μM), half-maximal (50 μM) and saturating (100 μM) concentrations of 2-APB (FIG. 3A) or camphor (0-8 mM) (FIG. 3E). These TRP agonists were chosen because they reliably elicited intracellular calcium signaling in normal human keratinocytes (FIG. 1A-1E).
As camphor can activate both TRPV3 and TRPV1 channels, these experiments were repeated in the presence of a specific TRPV1 antagonist, AMG-9810 (Gavva et al., 2005).

In assay [3] the test system is normal keratinocytes. The experiment in a line: In vivo keratinocyte proliferation (EdU, flow cytometry) in healthy mouse skin. Also noted: species or system mice. The conditions noted are these: 20% topical, five consecutive days. The procedure:
Age matched FVB (female mice purchased from Jackson labs) aged 6-8 weeks were shave on their dorsal sides. Mice were then treated for five consecutive days with vehicle, 20% camphor white oil, 20% eucalyptol, 20% α-pinene, 20% dipentene, or 20% γ-terpinene (2-6 mice per group). Mice were then injected with EdU and sacrificed one hour later. The epidermis was isolated and stained for Itgα6, Sca1+, and EDU. Itgα6+Sca1+EdU+ cells were then identified on a flow cytometer.
To test whether effects of camphor white oil on normal keratinocytes are TrpV3 dependent proliferation in TrpV3 mutant and wild type mice treated with camphor oil was analyzed. TrpV3 mutant and wild type mice aged 6-8 weeks were shaved on their dorsal sides. Mice were then treated for five consecutive days with vehicle or 20% camphor oil (4-5 mice per group). Mice were then injected with EdU (5-ethynyl-2′-deoxyuridine) and sacrificed one hour later. The epidermis was isolated and stained for Itga6, Sca1, and EdU. Itga6+Sca1+EdU+ cells were then identified on a flow cytometer to identify cells in the intrafollicular epidermis that are actively proliferating.
(Flow cytometry measures light scatter and fluorescence of single cells or particles in a stream.)

The test system of assay [4] is normal human epidermal keratinocytes. Kind of assay: Ratiometric fura-2 live-cell calcium imaging of keratinocytes. The conditions noted are these: for cytoplasmic Ca2+ signals in undifferentiated keratinocytes: 0.15%, within 1 minute of perfusion, versus vehicle; for % Responders (undifferentiated) Mean ± SEM or SD: growth conditions, saturating agonist (4αPDD 3 μM, camphor 10 mM, 2-APB 100 μM, capsaicin 1 μM, mustard oil 300 μM), SD for capsaicin and mustard oil. Type of assay: cell-based. The procedure: as §1
Human keratinocytes and SCC cells were washed in Ringer's solution (in mM: NaCl 140, KCl 5, D-glucose 10, HEPES 10, CaCl2 2, MgCl2 2, pH 7.2) and loaded with 5 μM fura-2AM and 1 μM pluronic (Invitrogen) for 30 minutes in the dark. During live-cell imaging, saturating concentrations of TRP agonists (10 mM Camphor, 100 μM 2-APB 1 μM Capsaicin, 300 μM Mustard oil or 3 μM 4αPDD) in Ringer's were used. Cells were imaged for 20 s to establish a baseline and then acutely treated with each agonist for 60 seconds. Imaging was performed on an Olympus IX81 microscope with a 20× (NA 0.17) objective and a Hamamatsu ORCA-R2 camera. 340- and 380-nm excitation and 540-nm emission filters were used to capture fura-2 fluorescence. Data are expressed as a ratio of fluorescent signals (340/380). All data acquisition was performed in MetaFluor. Data analysis was performed with custom algorithms in IgorPro. Cells with baseline levels ±2 SD above the mean were excluded from analysis as unhealthy. Responders were designated as cells whose 340/380 ratio was ≧20% above baseline.
TRP channels are selectively activated by endogenous and exogenous ligands at micromolar to millimolar concentrations. Since TRP channel activity increases over this range to allow graded Ca^2+ influx, receptor activity levels can be monitored by live-cell Ca^2+ imaging. A ratiometric calcium indicator (Fura-2) was employed to determine whether a panel of TRP-channel agonists elicited cytoplasmic calcium increases in human epidermal keratinocytes. (FIG. 1A-1E, FIG. 2A-2B, and Table 3).
Normal human keratinocytes were cultured in low-calcium media to promote proliferation or in 1.2-mM calcium media to induce differentiation. For live-cell imaging, keratinocytes were then washed and bathed in Ringer's solution containing 2 mM calcium so that calcium signals could be directly compared between cell populations.
In keratinocytes, increased intracellular calcium stimulates the terminal differentiation process. To determine whether camphor oil and its abundant constituents are directly bioactive on epithelial keratinocytes, a ratiometric Ca2+ indictor (Fura-2) was employed to test whether a panel of terpenes elicited cytoplasmic Ca2+ increases in undifferentiated human epidermal keratinocytes (FIG. 19A-19C). Keratinocytes were cultured according to our standard methods. For live-cell imaging, keratinocytes were bathed in Ringer's solution containing 2 mM Ca2+.

For assay [5] the following is noted: 0.5 to 5 percent ointment or liquid, once or twice a day for two to four weeks; cited from earlier work.
In assay [6] the test system is precancerous lesions and SCCs. It is filed as in vivo. The conditions noted are these: 20% wt/wt in acetone, topical once daily, five weeks.
Assay [7] relates to TRPV3. The conditions noted are these: reported in literature; cited from earlier work.
The mark [8] stands for this setting: responders F340:F380 increase ≧20%.

Entries after “also recorded” stand apart in the source; their conditions may differ. Read-outs that look alike come from different tables or passages of the source.

Regarding `CC1(C)C2CCC1(CS(=O)(=O)O)C(=O)C2=Cc1ccc(C=C2C(=O)C3(CS(=O)(=O)O)CCC2C3(C)C)cc1` [Ecamsule, Terephthalylidene Dicamphor Sulfonic Acid], the “Results of safety: against skin tumors in mice” value in assay [1] is listed as “Protects”.

Consider `CC(C)(C)c1ccc(/C=C/C(=O)Nc2ccc3c(c2)OCCO3)cc1` [AMG-9810, (E)-3-(4-t-butylphenyl)-N-(2,3-dihydrobenzo[b][1,4]dioxin-6-yl)acrylamide, reference compound], for which the “effect of TRPV1 inhibition on camphor's effects on keratinocyte proliferation” value in assay [2] is on record as “did not alter”.

`CC1=CCC(C(C)C)=CC1` [γ-terpinene, γ-Terpinene]: the “keratinocyte proliferation (Itgα6+Sca1+EdU+ cells) compared with vehicle” value in assay [3] was “significant increases”.

Turning to `CC12CCC(CC1)C(C)(C)O2` [eucalyptol, Eucalyptol], in assay [4], the “cytoplasmic Ca2+ signals in undifferentiated keratinocytes” value is listed as “no effects”. Also, the “keratinocyte proliferation (Itgα6+Sca1+EdU+ cells) compared with vehicle” value in assay [3] is recorded as “significant increases”.

In the case of `O=c1[nH]cc(F)c(=O)[nH]1` [5-fluorouracil], in assay [5], the cure rates entry is “up to 93%”.

`COc1cc(CNC(=O)CCCC/C=C/C(C)C)ccc1O` [Capsaicin, reference compound]: the “% Responders (undifferentiated) Mean ± SEM or SD” value in assay [4] (setting [8]) is reported as 2.3+/−2.6%.

With `C=CCN=C=S` [Mustard oil, reference compound], the “% Responders (undifferentiated) Mean ± SEM or SD” value is 0.6 ± 1.2%^ in assay [4] (setting [8]); 0.6+/−1.2% in assay [4] (responders F340:F380 increase ≧20%, listed as Mustard Oil); 0.6+/−1.2% in assay [4] (responders F340:F380 increase ≧20%, listed as mustard oil).

Consider `C=C(C)[C@H]1CC=C(C)CC1` [dipentene, Dipentene], for which the figures for the “premalignant tumors per mouse versus vehicle” value in assay [6] and in assay [6] (listed as Dipentene) were “antitumor effects” and “most striking tumor reductions”, respectively. Moreover, in assay [3], the “keratinocyte proliferation (Itgα6+Sca1+EdU+ cells) compared with vehicle” value is on record as “significant increases”.

In the case of `CC1(C)C2CCC1(C)C(O)C2` (centres unmarked) [Borneol, reference compound], in assay [7], the “effectiveness as a TRPV3 agonist relative to camphor” value is recorded as “more effective than camphor”.

On to `CCCCCCCCCC(=O)O[C@@H]1[C@@H](C)[C@@]2(O)[C@@H](C=C(CO)C[C@@]3(O)C(=O)C(C)=C[C@@H]23)[C@@H]2C(C)(C)[C@]12OC(=O)CCCCCCCCC` [4αPDD, 4α-phorbol-12,13 didecanoate, reference compound], for which the “% Responders (differentiated) Mean ± SEM” value in assay [4] (differentiated in 1.2 mM Ca2+, responders F340:F380 increase ≧20%, 4αPDD 3 μM, camphor 10 mM, 2-APB 100 μM) is 70.8 ± 11.1%. The “% Responders (undifferentiated) Mean ± SEM or SD” value in assay [4] (setting [8]) was determined as 84.8 ± 1.6%. The “keratinocytes with robust increases in intracellular Ca2+” value in assay [4] (growth or differentiation conditions) is on record as more than 70%.

Take `CC1=CCC2CC1C2(C)C` (stereo not drawn) [α-pinene, α-Pinene]: the “cytoplasmic Ca2+ signals in undifferentiated keratinocytes” value in assay [4] was “stimulated detectable calcium signals; also recorded: induced calcium increases”. In addition, the “premalignant tumors per mouse versus vehicle” value in assay [6] was “antitumor effects; also recorded: most striking tumor reductions”. In addition, the “keratinocyte proliferation (Itgα6+Sca1+EdU+ cells) compared with vehicle” value in assay [3] was “significant increases”.
